Source: the supplement of paper PMC8967900

Key:
Assay in all cases: selective drug sensitivity score (sDSS, relative to normal bone marrow) (sDSS (score)); higher = more potent and effective on the cell line relative to normal bone marrow cells
Details in all cases: 72 h
KASUMI-10 = tested on: KASUMI-10
TMD5 = tested on: TMD5
MOLT-16 = tested on: MOLT-16
MOLT-4 = tested on: MOLT-4
MHH-CALL-4 = tested on: MHH-CALL-4
ALL-PO = tested on: ALL-PO
KOPN-8 = tested on: KOPN-8
MHH-CALL-2 = tested on: MHH-CALL-2
COG-LL-402h = tested on: COG-LL-402h
RCH-ACV = tested on: RCH-ACV
KASUMI-9 = tested on: KASUMI-9
697 = tested on: 697
LC4-1 = tested on: LC4-1
SEM cells = tested on: SEM cells
COG-LL-355h = tested on: COG-LL-355h
COG-LL-332h = tested on: COG-LL-332h
KASUMI-2 = tested on: KASUMI-2
HAL-01 = tested on: HAL-01
HPB-ALL = tested on: HPB-ALL
CCRF-HSB2 = tested on: CCRF-HSB2
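Note: ALL cell lines in 384-well plates, five doses spanning 10,000-fold, each plate scaled between vehicle and 100 µmol/L benzalkonium chloride controls, sDSS an adapted area-under-curve metric.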

| Compound | selective drug sensitivity score (KASUMI-10) | selective drug sensitivity score (TMD5) | selective drug sensitivity score (MOLT-16) | selective drug sensitivity score (MOLT-4) | selective drug sensitivity score (MHH-CALL-4) | selective drug sensitivity score (ALL-PO) | selective drug sensitivity score (KOPN-8) | selective drug sensitivity score (MHH-CALL-2) | selective drug sensitivity score (COG-LL-402h) | selective drug sensitivity score (RCH-ACV) | selective drug sensitivity score (KASUMI-9) | selective drug sensitivity score 697 | selective drug sensitivity score (LC4-1) | selective drug sensitivity score (SEM cells) | selective drug sensitivity score (COG-LL-355h) | selective drug sensitivity score (COG-LL-332h) | selective drug sensitivity score (KASUMI-2) | selective drug sensitivity score (HAL-01) | selective drug sensitivity score (HPB-ALL) | selective drug sensitivity score (CCRF-HSB2) |
| --- | --- | --- | --- | --- | --- | --- | --- | --- | --- | --- | --- | --- | --- | --- | --- | --- | --- | --- | --- | --- |
| COc1cc2c(N3CCN(C(=O)Nc4ccc(OC(C)C)cc4)CC3)ncnc2cc1OCCCN1CCCCC1 [Tandutinib] (top concentration 1000 nM) | 4.5 | 0 | 0 | 0 | 0 | 3.1 | 0 | 0 | 0 | 0 | 0 | 0 | 0 | 4.2 | 0 | 0 | 0 | 0 | 0 | 0 |
| Cn1nnc2c(C(N)=O)ncn2c1=O [Temozolomide] (top concentration 100000 nM) | -0.04 | -0.04 | 5.16 | 1.86 | -0.04 | -0.04 | -0.04 | 3.36 | -0.04 | 6.66 | 6.16 | 3.76 | -0.04 | 6.46 | -0.04 | -0.04 | -0.04 | -0.04 | -0.04 | 2.06 |
| CN1CCC(COc2cnc(-c3cccc(Cn4nc(-c5cccc(C#N)c5)ccc4=O)c3)nc2)CC1 [Tepotinib] (top concentration 1000 nM) | -0.08 | -0.08 | -0.08 | -0.08 | -0.08 | -0.08 | -0.08 | -0.08 | -0.08 | 0.42 | -0.08 | -0.08 | 4.62 | 0.22 | -0.08 | -0.08 | 2.02 | -0.08 | -0.08 | 0.02 |
| NC(=S)N/N=C/c1ncccc1N [Triapine] (top concentration 10000 nM) | 6.88 | 2.28 | 4.68 | 1.98 | 2.18 | 2.28 | 1.78 | 3.48 | 9.28 | 7.38 | 3.98 | 5.88 | 1.78 | 2.18 | 1.08 | 2.78 | 2.38 | 2.18 | 1.58 | 8.48 |
| NC(=O)c1cccc(-c2cccc(OC(=O)NC3CCCCC3)c2)c1 [URB597] (top concentration 1000 nM) | -0.46 | -0.46 | 2.34 | -0.46 | -0.46 | -0.46 | -0.36 | 0.54 | -0.46 | -0.46 | 0.04 | -0.36 | 0.44 | -0.46 | -0.06 | -0.46 | -0.46 | 0.64 | -0.26 | -0.46 |
| COc1cc2/c(=N/c3ccc(Br)cc3F)nc[nH]c2cc1OCC1CCN(C)CC1 [Vandetanib] (top concentration 1000 nM) | -0.22 | 5.38 | -0.22 | -0.22 | -0.22 | -0.22 | -0.22 | 4.38 | 0.18 | -0.22 | -0.22 | 0.18 | -0.22 | -0.12 | -0.22 | 0.28 | -0.22 | 1.68 | -0.22 | 11.6 |
| COc1cccc(-c2ccc(NC(=O)C3=C(C(=O)O)CCC3)c(F)c2)c1 [Vidofludimus] (top concentration 10000 nM) | 0.5 | 0 | 5.4 | 3.6 | 2.8 | 2.6 | 5.5 | 3 | 0 | 8.8 | 2.7 | 6 | 6.1 | 5.6 | 0 | 4.9 | 6.2 | 2 | 3.2 | 4 |
| CC[C@]12C=CCN3CC[C@@]4(c5cc([C@@]6(C(=O)OC)C[C@@H]7C[C@@H](C(C)(F)F)CN(Cc8c6[nH]c6ccccc86)C7)c(OC)cc5N(C)[C@H]4[C@@](O)(C(=O)OC)[C@@H]1OC(C)=O)[C@@H]32 [Vinflunine] (top concentration 1000 nM) | 4.08 | 0.28 | 3.98 | 3.48 | 0.58 | 1.68 | 7.08 | 2.88 | 2.78 | 3.98 | 6.78 | 4.68 | 4.48 | 6.28 | 2.68 | 3.78 | 5.68 | 1.38 | 6.18 | 4.48 |
